Measured values from patent US20100119479A1, “THERAPEUTIC ANTIVIRAL PEPTIDES” (INTERMUNE, INC., priority 2008, published 2010).

Legend:
[1] = biological target: T1, full-length NS3/NS4A-2 (HCV NS3 protease) (Hepatitis C virus genotype 1b, UniProt Q9WMX2); assay: NS3 Inhibition Assay (NS3-NS4 protease assay, RETS1 substrate); type: biochemical; details: NS3/NS4A-2 protease
T1 construct: Recombinant E. coli or Baculovirus full-length NS3; host or cells: E. coli or baculovirus (BV) expression
Method in brief: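 Full-length NS3 (E. coli 2 nM or baculovirus 3 nM) precomplexed with excess NS4A-2, preincubated 10 min at room temperature with compound (top 50 μM). Then 2 μM RETS1 FRET substrate added, fluorescence (ex 335/em 495 nm) read kinetically for 30 min. IC50 by 4-parameter fit, converted to Ki using Km 2.03 μM (E. coli) or 1.74 μM (BV).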

[2] = system: HCV sub-genomic replicon, GS4.3 (HuH-7 hepatoma cells); assay: Quantitation by ELISA of NPTII in the HCV sub-genomic replicon, GS4.3; type: cell-based; details: Hepatitis C virus, GS4.3 replicon cells, 72 h incubation
Method in brief: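 HuH-7 cells carrying the 1377/NS3-3′ subgenomic replicon were seeded 24 h ahead, then treated in G418-free medium with 3-fold dilutions from 10 μM (1% DMSO, duplicates) for 72 h at 37 °C, 5% CO2. NPTII in lysates was measured by ELISA (TMB, 450 nm). EC50 came from a 4-parameter fit of percent DMSO-control signal.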

T1 sequence (Q9WMX2 1027-1657): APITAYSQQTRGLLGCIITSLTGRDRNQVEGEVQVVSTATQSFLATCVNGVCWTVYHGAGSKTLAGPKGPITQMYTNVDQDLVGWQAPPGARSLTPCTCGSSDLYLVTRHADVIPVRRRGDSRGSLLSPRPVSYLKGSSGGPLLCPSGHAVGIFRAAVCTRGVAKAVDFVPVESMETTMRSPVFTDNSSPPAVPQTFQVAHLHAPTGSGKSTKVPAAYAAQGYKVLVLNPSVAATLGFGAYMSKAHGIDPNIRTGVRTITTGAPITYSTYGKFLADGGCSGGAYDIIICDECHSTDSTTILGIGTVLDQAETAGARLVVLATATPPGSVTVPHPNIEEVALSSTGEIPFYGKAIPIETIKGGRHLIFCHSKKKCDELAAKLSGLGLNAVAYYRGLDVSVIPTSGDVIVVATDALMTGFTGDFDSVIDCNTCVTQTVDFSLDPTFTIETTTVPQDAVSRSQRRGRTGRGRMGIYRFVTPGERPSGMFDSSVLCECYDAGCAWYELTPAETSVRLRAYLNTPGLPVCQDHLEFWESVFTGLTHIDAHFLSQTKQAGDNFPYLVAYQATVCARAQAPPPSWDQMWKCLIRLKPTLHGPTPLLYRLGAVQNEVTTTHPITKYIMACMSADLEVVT
T1 sequence (Q9WMX2 1658-1711): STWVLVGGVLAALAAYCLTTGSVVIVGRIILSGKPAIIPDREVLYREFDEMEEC

Compound | IC50 [1] | EC50 [2]
C=C[C@@H]1C[C@]1(NC(=O)[C@@H]1C[C@@H](Oc2nccc3ccccc23)CN1C(=O)[C@@H](Nc1cc(F)cc(C(F)(F)F)c1)C(C)(C)C)C(=O)NS(=O)(=O)C1CC1 [Compound 7] | < 100 nM | < 100 nM
CC[C@@H]1C[C@]1(NC(=O)[C@@H]1C[C@@H](OC(=O)N2Cc3ccc(NC(=O)COCCOCCOC)cc3C2)CN1C(=O)[C@@H](Nc1cc(F)cc(C(F)(F)F)c1)C(C)(C)C)C(=O)NS(=O)(=O)C1CC1 [Compound 18] | 100 to 1000 nM | 100 to 1000 nM
CC(C)(C)[C@H](Nc1cccc(OC(F)(F)F)c1)C(=O)N1C[C@H](OC(=O)N2Cc3cccc(Cl)c3C2)C[C@H]1C(=O)N[C@]1(C(=O)NS(=O)(=O)C2(C)CC2)C[C@H]1C1CC1 [Compound 304] | < 100 nM | < 100 nM
CC[C@@H]1C[C@]1(NC(=O)[C@@H]1CC(Oc2cc(-c3nc(C(C)C)cs3)nc3c(C)c(OC)ccc23)CN1C(=O)[C@@H](Nc1cccc(C(F)(F)F)c1)C(C)(C)C)C(=O)NS(=O)(=O)C1CC1 (some centres unmarked) [Compound 335] | < 100 nM | < 100 nM
CC[C@@H]1C[C@]1(NC(=O)[C@@H]1C[C@@H](Oc2nc3ccccc3s2)CN1C(=O)[C@@H](Nc1cccc(C(F)(F)F)c1)C(C)(C)C)C(=O)NS(=O)(=O)C1(C)CC1 [Compound 231] | < 100 nM | < 100 nM
CC[C@@H]1C[C@]1(NC(=O)[C@@H]1C[C@@H](OC(=O)N2Cc3cccc(F)c3C2)CN1C(=O)[C@@H](Nc1ccc(C(=O)O)cc1)C(C)(C)C)C(=O)NS(=O)(=O)C1CC1 [Compound 3] | < 100 nM | > 1000 nM
CC[C@@H]1C[C@]1(NC(=O)[C@@H]1C[C@@H](OC(=O)N2Cc3ccc(OC)cc3C2)CN1C(=O)[C@@H](Nc1cc(F)cc(C(F)(F)F)c1)C(C)(C)C)C(=O)NS(=O)(=O)C1(C)CC1 [Compound 291] | < 100 nM | < 100 nM
CC(C)(C)[C@H](Nc1cc(F)cc(C(F)(F)F)c1)C(=O)N1C[C@H](OC(=O)N2Cc3cccc(Cl)c3C2)C[C@H]1C(=O)N[C@]1(C(=O)NS(=O)(=O)C2(C)CC2)C[C@H]1C1CC1 [Compound 298] | < 100 nM | < 100 nM
CC[C@@H]1C[C@]1(NC(=O)[C@@H]1C[C@@H](OC(=O)N2Cc3cccc(F)c3C2)CN1C(=O)[C@@H](Nc1cccc(C(=O)N2CCNCC2)c1)C(C)(C)C)C(=O)NS(=O)(=O)C1CC1 [Compound 9] | < 100 nM | > 1000 nM
C=C[C@@H]1C[C@]1(NC(=O)[C@H]1Cc2cc(Oc3cccc(Cl)c3)ccc2CN1C(=O)[C@@H](Nc1cccc(C(F)(F)F)c1)C(C)(C)C)C(=O)NS(=O)(=O)C1CC1 [Compound 24] | < 100 nM | > 1000 nM
C=C[C@@H]1C[C@]1(NC(=O)[C@@H]1C[C@@H](Oc2cc(-c3nc(C(C)C)cs3)nc3c(C)c(OC)ccc23)CN1C(=O)[C@@H](Nc1ccccc1[N+](=O)[O-])C(C)(C)C)C(=O)NS(=O)(=O)C1CC1 [Compound 351] | 100 to 1000 nM | < 100 nM
CC[C@@H]1C[C@]1(NC(=O)[C@@H]1C[C@@H](Oc2cc(-c3nc(C(C)C)cs3)nc3c(C)c(OC)ccc23)CN1C(=O)[C@@H](Nc1cc(F)cc(C(F)(F)F)c1)C(C)(C)C)C(=O)NS(=O)(=O)C1CC1 [Compound 354] | < 100 nM | < 100 nM
C=C[C@@H]1C[C@]1(NC(=O)[C@@H]1C[C@@H](Oc2cc(-c3nc(C(C)C)cs3)nc3c(C)c(OC)ccc23)CN1C(=O)[C@@H](Nc1cccc(C(F)(F)F)c1)C(C)(C)C)C(=O)NS(=O)(=O)C1(C)CC1 [Compound 302] | < 100 nM | < 100 nM
CC[C@@H]1C[C@]1(NC(=O)[C@@H]1C[C@@H](OC(=O)N2Cc3cccc(Cl)c3C2)CN1C(=O)[C@@H](Nc1ccc(F)c(C(F)(F)F)c1)C(C)(C)C)C(=O)NS(=O)(=O)C1(C)CC1 [Compound 284] | < 100 nM | < 100 nM
CC(C)(C)[C@H](Nc1cc(F)cc(C(F)(F)F)c1)C(=O)N1C[C@H](OC(=O)N2Cc3cccc(Cl)c3C2)C[C@H]1C(=O)N[C@]1(C(=O)NS(=O)(=O)C2CC2)C[C@H]1C1CC1 [Compound 292] | < 100 nM | < 100 nM
CC[C@@H]1C[C@]1(NC(=O)[C@@H]1C[C@@H](Oc2cc(-c3ccccc3)nc3cc(OC)ccc23)CN1C(=O)[C@@H](Nc1cccc(C(F)(F)F)c1)C(C)(C)C)C(=O)NS(=O)(=O)C1(C)CC1 [Compound 230] | < 100 nM | < 100 nM
CC[C@@H]1CC1(NC(=O)[C@@H]1C[C@@H](OC(=O)N2Cc3cccc(Cl)c3C2)CN1C(=O)[C@@H](Nc1cccnc1)C(C)(C)C)C(=O)NS(=O)(=O)C1CC1 (some centres unmarked) [Compound 1] | < 100 nM | < 100 nM
CC(C)(C)[C@H](Nc1ccc(F)c(C(F)(F)F)c1)C(=O)N1C[C@H](OC(=O)N2Cc3cccc(Cl)c3C2)C[C@H]1C(=O)N[C@]1(C(=O)NS(=O)(=O)C2(C)CC2)C[C@H]1C1CC1 [Compound 310] | < 100 nM | < 100 nM
C=C[C@@H]1C[C@]1(NC(=O)[C@@H]1C[C@@H](Oc2cc(-c3nc(C(C)C)cs3)nc3c(C)c(OC)ccc23)CN1C(=O)[C@@H](Nc1ccc(F)c(C(F)(F)F)c1)C(C)(C)C)C(=O)NS(=O)(=O)N(C)C [Compound 400] | < 100 nM | < 100 nM
